“And” between values parts separate entries of the source, which are not always exact repeats. Identical values can stand only once. Like-named read-outs stand apart in the source and are kept apart here.
Experiment: Pharmacokinetics study of KPT-335 in cats (i.v. injection, p.o. capsules and tablets; UPLC-MS/MS, non-compartmental analysis)
Format: in vivo
Details: cats; for bioavailability / k el / Tmax / MRT last / AUC(0-inf) / AUC(0-t) / Cmax: both sexes, plasma, po; for k el: read-out: Lambda_z (converted); for Tmax: read-out: Tmax; for AUC(0-inf): read-out: AUCINF_obs; for AUC(0-t): read-out: AUClast; for Cmax: read-out: Cmax; for Plasma concentration: individual cats 1-6
Procedure: In this study, a parallel trial design was employed, 42 adult domestic cats (21 males and 21 females), aged 1 to 2 years and weighing 2.5 ± 0.25 kg. Cats were grouped by random number, with half male and female in each group, and all cats were determined to be systemically healthy during an initial screening visit 1 week prior to the experiment. They were acclimatized to the laboratory environment for 7 days before the study commenced. During this period, they were kept in solitary cages with free access to water. Cats in the fasting group were deprived of food for 12 h prior to and 2 h following drug administration, while those in the feeding group were fed twice a day. Food and water sources were consistent throughout the trail. During and at the end of the experiment, we systematically assessed the adverse reactions by recording parameters such as body weight, behavior, and coat gloss in all test cats both before and after the trial. These observations were conducted to evaluate whether any adverse reactions occurred. All procedures were reviewed and approved by the Institutional Animal Care and Use Committee of China Agricultural University (11305-23-E-002).
The UPLC-MS/MS system utilized a UPLC 1290 (Agilent) paired with a Phenomenex Kinetex C18 column (50 mm × 2.1 mm, 2.6 μm) for separation at a flow rate of 0.3 mL/min. The chromatographic mobile phase comprised water (A) and acetonitrile (B), both containing 0.1% formic acid. The gradient elution program was as follows: from 0.5 to 2.5 min, 10 to 95% B; from 2.5 to 4.5 min, 95% B; from 4.5 to 4.6 min, 95 to 10% B; and from 4.6 to 6.0 min, 10% B. The injection volume was 2 μL.
For mass spectrometry, an Agilent 6,475-LC-TQ equipped with an electrospray ion source was used. Multiple Reaction Monitoring (MRM) was selected to quantify KPT-335 in the positive ion mode. The ion transitions monitored were m/z 443.1 → 334.0 and 443.1 → 110.1 for KPT-335, and m/z 444.1 → 334.0 for the internal standard (IS). The cone voltage and collision energy were optimized for KPT-335 and the IS individually, set at 160 V and 25 eV, respectively. The optimized parameters for the instrument included an ion source temperature of 350°C, solvent removal temperature of 320°C, capillary voltage of 3.0 kV, and a solvent gas flow rate of 300 L/h.
The method was developed based on prior research conducted in the laboratory ([16]) and validated in accordance with international guidelines ([17]). The calibration concentration range for KPT-335 spanned from 0.5 to 100 ng/mL, with a lower limit of quantification (LLOQ) set at 0.5 ng/mL. The squared correlation coefficient (R^2) values exceeded 0.999, indicating high linearity.
For sample preparation, 100 μL of plasma was mixed with 10 μL of internal standard (IS) and 900 μL of acetonitrile, followed by vortexing for 2 min. The mixture was then centrifuged at 13,400 × g at 4°C for 10 min. The supernatant was filtered through a 0.22 μm organic membrane, and the resulting sample was analyzed using UPLC-MS/MS.
Cats were divided into seven groups, with six cats in each group. In the intravenous (i.v.) group (Group 1), cats received an injection of KPT-335 at a dosage of 1 mg/kg body weight (BW), administered via a bolus through a venous infusion needle. For the oral (p.o.) administration, cats were given capsules in a fasting state at doses of 0.2 mg/kg BW (Group 2), 1 mg/kg BW (Group 3), and 2 mg/kg BW (Group 4). Additionally, tablets were administered at 1 mg/kg BW (fasting, Group 5), 1 mg/kg BW (Group 6), and 2 mg/kg BW (Group 7) in a feeding state, followed by 3 mL of water delivered with a syringe.
For the p.o. administration, blood samples of 1.5 mL were collected via the brachial cephalic vein prior to administration and at 0.167, 0.333, 0.5, 0.75, 1, 1.5, 2, 4, 6, 8, 12, 24, 32, and 48 h post-administration. […]

[1] = 0.2 mg/kg, p.o., Capsule, Fasting, 0.2 mg/kg BW
[2] = 1 mg/kg, p.o., Capsule, Fasting, 1 mg/kg BW
[3] = 1 mg/kg, p.o., Tablet, Fasting, 1 mg/kg BW
[4] = 1 mg/kg, p.o., Tablet, Feeding, 1 mg/kg BW
[5] = 2 mg/kg, p.o., Capsule, Fasting, 2 mg/kg BW
[6] = 2 mg/kg, p.o., Tablet, Feeding, 2 mg/kg BW
[7] = capsule group, 0.2–2 mg/kg BW, reference 95% CI 0.90–1.10

O=C(/C=C\n1cnc(-c2cc(C(F)(F)F)cc(C(F)(F)F)c2)n1)NNc1ccccn1 [KPT-335]
bioavailability (0.2 mg/kg, p.o., Capsule, Fasting, 0.2 mg/kg BW, read-out: F (absolute bioavailability)): 43.7%
k el [1]: 3.33e-05 s⁻¹
Tmax [1]: 2.46 ± 2.75 h
MRT last (1 mg/kg, Capsule, Fasting, 1 mg/kg BW): 5.94 ± 1.05 h
MRT last (1 mg/kg, Tablet, Fasting, 1 mg/kg BW): 8.07 ± 1.73 h
MRT last (1 mg/kg, Tablet, Feeding, 1 mg/kg BW): 5.8 ± 1.61 h
bioavailability (1 mg/kg, doses of 1 mg/kg BW, read-out: bioavailability of commercial tablets): ~70%
AUC(0-inf) [2]: 1420 ± 490 ng·h/mL
AUC(0-t) [2]: 1420 ± 489 ng·h/mL
Cmax [2]: 260 ± 75 ng/mL
bioavailability (1 mg/kg, p.o., Capsule, Fasting, 1 mg/kg BW, read-out: F (absolute bioavailability)): 44.7%
k el [2]: 3.61e-05 s⁻¹
Tmax [2]: 1.25 ± 0.39 h
AUC(0-inf) [3]: 2430 ± 805 ng·h/mL
AUC(0-t) [3]: 2410 ± 793 ng·h/mL
Cmax [3]: 264 ± 129 ng/mL
bioavailability (1 mg/kg, p.o., Tablet, Fasting, 1 mg/kg BW, read-out: F (absolute bioavailability)): 75.9%
k el [3]: 3.61e-05 s⁻¹
Tmax [3]: 1.79 ± 1.17 h
AUC(0-inf) [4]: 2270 ± 1260 ng·h/mL
AUC(0-t) [4]: 2250 ± 1260 ng·h/mL
Cmax [4]: 364 ± 145 ng/mL
bioavailability (1 mg/kg, p.o., Tablet, Feeding, 1 mg/kg BW, read-out: F (absolute bioavailability)): 71%
k el [4]: 5e-05 s⁻¹
Tmax [4]: 1.33 ± 0.41 h
MRT last (2 mg/kg, Capsule, Fasting, 2 mg/kg BW): 7.57 ± 1.94 h
MRT last (2 mg/kg, Tablet, Feeding, 2 mg/kg BW): 5.07 ± 0.69 h
AUC(0-inf) [5]: 1850 ± 819 ng·h/mL
AUC(0-t) [5]: 1840 ± 819 ng·h/mL
Cmax [5]: 280 ± 175 ng/mL
bioavailability (2 mg/kg, p.o., Capsule, Fasting, 2 mg/kg BW, read-out: F (absolute bioavailability)): 28.9%
k el [5]: 2.78e-05 s⁻¹
Tmax [5]: 1.58 ± 0.38 h
AUC(0-inf) [6]: 3010 ± 715 ng·h/mL
AUC(0-t) [6]: 3000 ± 711 ng·h/mL
Cmax [6]: 559 ± 104 ng/mL
bioavailability (2 mg/kg, p.o., Tablet, Feeding, 2 mg/kg BW, read-out: F (absolute bioavailability)): 47.3%
k el [6]: 5.83e-05 s⁻¹
Tmax [6]: 1.58 ± 0.2 h
bioavailability (doses of 0.2–1 mg/kg BW, read-out: absolute bioavailability of capsules): ~40%
dose linearity of pharmacokinetics (0.2–2 mg/kg BW dosage range): not to exhibit linear pharmacokinetics
differences in pharmacokinetic parameters (Cmax and AUClast) between male and female cats (all groups): no statistically significant differences
95% confidence interval of β, dose vs AUClast [7]: 0.63–1.11
95% confidence interval of β, dose vs Cmax [7]: 0.79–1.30
Plasma concentration (capsule p.o. 0.2 mg/kg BW, 1.5 h, 0.2 mg/kg, in ng/mL): 15.20 and 20.46 and 38.22 and 14.31 and 22.72 and 26.72
Plasma concentration (capsule p.o. 0.2 mg/kg BW, 2 h, 0.2 mg/kg, in ng/mL): 13.60 and 18.16 and 33.66 and 26.22 and 20.79 and 22.21
Plasma concentration (capsule p.o. 0.2 mg/kg BW, 4 h, 0.2 mg/kg): 8.71 ng/mL
Plasma concentration (capsule p.o. 0.2 mg/kg BW, 4 h, 0.2 mg/kg, in ng/mL): 14.86 and 24.97 and 21.41 and 17.43 and 19.90
Plasma concentration (capsule p.o. 0.2 mg/kg BW, 6 h, 0.2 mg/kg): 6.19 ng/mL
Plasma concentration (capsule p.o. 0.2 mg/kg BW, 6 h, 0.2 mg/kg, in ng/mL): 20.30 and 16.23 and 18.02 and 15.34
Plasma concentration (capsule p.o. 0.2 mg/kg BW, 32 h, 0.2 mg/kg): BLOQ
Plasma concentration (capsule p.o. 0.2 mg/kg BW, 48 h): BLOQ
Plasma concentration (capsule p.o. 1 mg/kg BW, 48 h, 1 mg/kg): BLOQ
Plasma concentration (i.v. 1 mg/kg BW, 0.083 h, 1 mg/kg, in ng/mL): 1162.77 and 332.48 and 914.52 and 894.65 and 827.83 and 934.74
Plasma concentration (i.v. 1 mg/kg BW, 0.167 h, 1 mg/kg, in ng/mL): 1202.33 and 331.12 and 812.32 and 891.11 and 808.43 and 825.26
Plasma concentration (i.v. 1 mg/kg BW, 0.25 h, 1 mg/kg, in ng/mL): 1058.99 and 320.82 and 769.91 and 863.19 and 750.36 and 838.90
Plasma concentration (i.v. 1 mg/kg BW, 0.33 h, 1 mg/kg, in ng/mL): 996.69 and 292.96 and 774.12 and 852.52 and 723.28 and 760.14
Plasma concentration (i.v. 1 mg/kg BW, 0.5 h, 1 mg/kg, in ng/mL): 935.15 and 297.11 and 736.77 and 700.75 and 649.99 and 680.18
Plasma concentration (i.v. 1 mg/kg BW, 0.75 h, 1 mg/kg, in ng/mL): 709.09 and 236.62 and 633.10 and 524.38 and 509.94 and 541.50

Reference: PMC12078333, “Pharmacokinetic evaluation and bioavailability of KPT-335 (Verdinexor) in cats” (Frontiers in Veterinary Science, 2025)
